Data published in patent US20180250314A1, “Skin Treatment System” (priority 2017, published 2018).

System: keratosis pilaris
Experiment: In-vivo study, patients with keratosis pilaris
Details: topical use; arms, buttocks, thighs, and cheeks
Text: During use of the skin treatment formulations, the glycolic acid is configured to react with the top layer of skin, i.e., the stratum corneum, by breaking it down while dissolving sebum and other substances that bind dead tissue together. The dead skin cells produced when exposed to the glycolic acid may then be sloughed off with gentle exfoliation, which clears blocked pores and opens comedones to reveal smoother, brighter, younger-looking skin.

## O=C(O)CO [glycolic acid]
  skin appearance in keratosis pilaris patients: clearer and smoother skin
